Measurements from paper PMC6199744, “Development of Chemical Proteomics for the Folateome and Analysis of the Kinetoplastid Folateome” (ACS Infectious Diseases, 2018).
Where two headings read alike, the source gives them in different places.

Experiments:
Format in all cases: binding
[1] = biological target: T1, HeLa cell extract proteins (Homo sapiens, UniProt P42330)
T1 construct: endogenous in cells; host or cells: HeLa cell extract
T1 sequence (P42330 1-323): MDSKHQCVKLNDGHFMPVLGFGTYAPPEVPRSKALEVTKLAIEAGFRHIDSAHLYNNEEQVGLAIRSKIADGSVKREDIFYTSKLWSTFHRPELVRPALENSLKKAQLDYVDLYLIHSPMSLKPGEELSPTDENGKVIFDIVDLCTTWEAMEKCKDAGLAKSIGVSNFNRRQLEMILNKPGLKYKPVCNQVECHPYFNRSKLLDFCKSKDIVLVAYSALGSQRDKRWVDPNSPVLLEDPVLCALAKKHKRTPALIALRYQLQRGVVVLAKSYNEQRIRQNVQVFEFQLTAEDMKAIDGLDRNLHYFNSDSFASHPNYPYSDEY

[2] = biological target: T2, HeLa cell extract proteins (Homo sapiens, UniProt Q8WTW3); settings: protein COG1; HeLa
T2 construct: endogenous in cells; host or cells: HeLa cell extract
T2 sequence (Q8WTW3 1-980): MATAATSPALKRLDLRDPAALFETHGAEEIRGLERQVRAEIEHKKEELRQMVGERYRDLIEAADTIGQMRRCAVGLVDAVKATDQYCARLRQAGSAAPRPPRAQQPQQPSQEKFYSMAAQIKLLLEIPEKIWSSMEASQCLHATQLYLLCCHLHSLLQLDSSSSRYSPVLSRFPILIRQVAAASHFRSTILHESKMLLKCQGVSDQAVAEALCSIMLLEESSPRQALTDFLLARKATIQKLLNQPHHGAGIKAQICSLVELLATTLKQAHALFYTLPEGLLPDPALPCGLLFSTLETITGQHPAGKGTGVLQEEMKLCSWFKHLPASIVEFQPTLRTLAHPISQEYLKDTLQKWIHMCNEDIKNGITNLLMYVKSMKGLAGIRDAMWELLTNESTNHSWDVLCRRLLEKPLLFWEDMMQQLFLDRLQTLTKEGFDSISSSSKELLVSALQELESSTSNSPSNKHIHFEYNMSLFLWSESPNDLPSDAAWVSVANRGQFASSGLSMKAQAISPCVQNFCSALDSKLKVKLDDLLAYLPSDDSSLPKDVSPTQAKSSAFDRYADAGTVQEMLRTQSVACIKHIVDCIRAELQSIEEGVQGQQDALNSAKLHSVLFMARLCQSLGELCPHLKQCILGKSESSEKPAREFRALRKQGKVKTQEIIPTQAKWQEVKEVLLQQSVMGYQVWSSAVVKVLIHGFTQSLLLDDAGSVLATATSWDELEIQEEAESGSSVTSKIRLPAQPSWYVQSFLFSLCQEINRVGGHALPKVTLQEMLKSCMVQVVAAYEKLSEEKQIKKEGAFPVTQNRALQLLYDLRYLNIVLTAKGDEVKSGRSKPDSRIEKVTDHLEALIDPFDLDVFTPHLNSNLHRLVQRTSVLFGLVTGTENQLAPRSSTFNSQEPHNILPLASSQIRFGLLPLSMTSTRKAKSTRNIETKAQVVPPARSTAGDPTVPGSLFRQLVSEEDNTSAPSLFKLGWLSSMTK

[3] = biological target: T3, HeLa cell extract proteins (Homo sapiens, UniProt Q96RQ3); settings: captured protein MCCC1; HeLa
T3 construct: endogenous in cells; host or cells: HeLa cell extract
T3 sequence (Q96RQ3 42-725): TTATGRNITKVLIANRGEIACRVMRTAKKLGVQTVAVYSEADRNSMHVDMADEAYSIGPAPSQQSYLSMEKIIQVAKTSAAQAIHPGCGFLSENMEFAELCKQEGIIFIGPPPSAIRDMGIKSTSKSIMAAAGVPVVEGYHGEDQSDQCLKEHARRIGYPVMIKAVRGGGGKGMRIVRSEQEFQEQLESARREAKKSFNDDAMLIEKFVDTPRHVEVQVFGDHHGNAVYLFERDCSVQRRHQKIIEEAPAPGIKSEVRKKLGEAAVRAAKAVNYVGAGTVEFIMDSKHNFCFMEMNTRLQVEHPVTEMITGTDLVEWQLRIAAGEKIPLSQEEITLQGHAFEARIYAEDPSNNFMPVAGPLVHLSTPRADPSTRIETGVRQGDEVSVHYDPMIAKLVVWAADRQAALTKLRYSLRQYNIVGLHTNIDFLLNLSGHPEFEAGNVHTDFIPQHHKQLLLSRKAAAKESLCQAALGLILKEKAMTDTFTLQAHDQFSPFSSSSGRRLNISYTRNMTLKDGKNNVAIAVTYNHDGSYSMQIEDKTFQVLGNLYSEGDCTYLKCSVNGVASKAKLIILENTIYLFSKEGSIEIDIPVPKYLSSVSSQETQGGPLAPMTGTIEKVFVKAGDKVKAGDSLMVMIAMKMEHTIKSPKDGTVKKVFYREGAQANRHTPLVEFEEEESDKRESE

Structure (SMILES) | fold changes relative to vehicle control ([1]; HeLa, protein AKR1C3) | fold changes relative to vehicle control [1] | fold changes relative to vehicle control [2] | fold changes relative to vehicle control [3]
Nc1nc2c(c(=O)[nH]1)N(C=O)C(CNc1ccc(C(=O)N[C@@H](CCC(=O)O)C(=O)O)cc1)CN2 (stereo partly shown) [LEU, leucovorin] | 0.98 |  |  | 
Nc1nc2[nH]cc(CCc3ccc(C(=O)N[C@@H](CCC(=O)O)C(=O)O)cc3)c2c(=O)[nH]1 [PTX, pemetrexed] |  | 1.13 |  | 
CCCCCCOc1ccc(Cc2cnc(N)nc2N)cc1 [compound 1] |  |  | 1 | 1.03
CCCCCCOc1cccc(Cc2cnc(N)nc2N)c1 [compound 2] |  |  | 1.21 | 1.15
Nc1nc2cccc(-c3ccccc3)c2n1Cc1ccc(Cl)c(Cl)c1 [compound 3] |  |  | 0.98 | 1.21
NCCOCCOCC(=O)Nc1nc2ncc(CNc3ccc(C(=O)NC(CCC(=O)O)C(=O)O)cc3)nc2c(=O)[nH]1 (stereo not shown) [compound 6] | 1.3 |  |  | 
NCCCNc1ccc(C(=O)NC(CCC(=O)O)C(=O)O)cc1 (stereo not shown) [compound 7] | 0.99 |  |  | 
